pIC50: −log10 of the molar value. Calls of active or inactive are those of the source. The rule behind the calls is not given here.
What was measured:
Pichia kudriavzevii = assay: Antifungal activity against Candida krusei ATCC 6258 after 48 to 72 hrs by broth microdilution method; assay type: functional
Candida albicans = assay: Antifungal activity against Candida albicans ATCC 10231 after 48 to 72 hrs by broth microdilution method; assay type: functional
Aspergillus terreus = assay: Antifungal activity against Aspergillus terreus 05-202844 after 48 to 72 hrs by broth microdilution method; assay type: functional
Cryptococcus neoformans = assay: Antifungal activity against Cryptococcus neoformans ATCC 90112 after 48 to 72 hrs by broth microdilution method; assay type: functional
[1] = Cytotoxicity against human erythrocytes assessed as hemolysis after 1 hr; assay type: cell-based, Erythrocyte
[2] = target: Phospholipase A2, major isoenzyme (Sus scrofa, UniProt P00592); assay: Inhibition of porcine pancreatic PLA2 after 1 hr by radiometric method
[3] = tested on: Cryptococcus neoformans var. grubii H99; assay: Inhibition of lysophospholipid fatty acyl chain hydrolysis activity of Cryptococcus neoformans var. grubii H99 PLB assessed as formation of radiolabeled free fatty acid at 0.25 to 250 uM at pH 4 by radiometric assay
[4] = tested on: Cryptococcus neoformans var. grubii H99; assay: Inhibition of lysophospholipase acyltransferase activity of Cryptococcus neoformans var. grubii H99 PLB assessed as formation of radiolabeled dipalmitoyl phosphatidylcholine at 0.25 to 250 uM at pH 4 by radiometric assay
Candida parapsilosis = assay: Antifungal activity against Candida parapsilosis ATCC 22019 after 48 to 72 hrs by broth microdilution method; assay type: functional; conditions: Lodderomyces parapsilosis
Exophiala spinifera = assay: Antifungal activity against Exophiala spinifera 03-200803 after 48 to 72 hrs by broth microdilution method; assay type: functional
Nakaseomyces glabratus = assay: Antifungal activity against Candida glabrata 04-202345 after 48 to 72 hrs by broth microdilution method; assay type: functional
Lomentospora prolificans = assay: Antifungal activity against Scedosporium prolificans 05-203060 after 48 to 72 hrs by broth microdilution method; assay type: functional
MDCK = assay: Cytotoxicity against MDCK cells after 3 hrs by MTS assay; assay type: cell-based; conditions: Canis lupus familiaris
Aspergillus flavus = assay: Antifungal activity against Aspergillus flavus ATCC 204304 after 48 to 72 hrs by broth microdilution method; assay type: functional
A549 = assay: Cytotoxicity against human A549 cells after 3 hrs by MTS assay; assay type: cell-based; conditions: A549, 3 h
Rhizopus arrhizus = assay: Antifungal activity against Rhizopus oryzae 05-203111 after 48 to 72 hrs by broth microdilution method; assay type: functional
[5] = Inhibition of phospholipid fatty acyl chain hydrolysis activity of Cryptococcus neoformans var. grubii H99 PLB assessed as formation of radiolabeled free fatty acid at pH 4 by radiometric assay
Scedosporium apiospermum = assay: Antifungal activity against Scedosporium apiospermum 05-203100 after 48 to 72 hrs by broth microdilution method; assay type: functional
Curvularia australiensis = assay: Antifungal activity against Bipolaris australiensis 03-201798 after 48 to 72 hrs by broth microdilution method; assay type: functional
Aspergillus fumigatus = assay: Antifungal activity against Aspergillus fumigatus ATCC 204305 after 48 to 72 hrs by broth microdilution method; assay type: functional
[6] = Solubility at 50 uM; assay type: physicochemical
[7] = Selectivity index, ratio of HC50 for human erythrocytes to MIC for Cryptococcus neoformans ATCC 90112; assay type: functional
[8] = Selectivity index, ratio of HC50 for human erythrocytes to MIC for Candida albicans ATCC 10231; assay type: functional
[9] = Selectivity index, ratio of IC50 for human A549 cells to MIC for Candida albicans ATCC 10231; assay type: functional
[10] = Selectivity index, ratio of IC50 for MDCK cells to MIC for Candida albicans ATCC 10231; assay type: functional
[11] = Selectivity index, ratio of IC50 for MDCK cells to MIC for Cryptococcus neoformans ATCC 90112; assay type: functional
[12] = Selectivity index, ratio of IC50 for human A549 cells to MIC for Cryptococcus neoformans ATCC 90112; assay type: functional
[13] = Candida albicans, ATCC 10231, read-out: MIC
[14] = Cryptococcus neoformans, ATCC 90112
[15] = Cryptococcus neoformans, ATCC 90112, read-out: MIC

Phospholipase A2, major isoenzyme, sequence (P00592 whole entry): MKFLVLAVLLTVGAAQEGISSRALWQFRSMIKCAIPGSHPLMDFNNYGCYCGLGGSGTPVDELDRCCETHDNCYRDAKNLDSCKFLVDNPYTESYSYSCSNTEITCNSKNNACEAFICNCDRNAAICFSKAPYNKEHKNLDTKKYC

| Compound | MFC (Pichia kudriavzevii) | MIC (Pichia kudriavzevii) | MFC (Candida albicans; Candida albicans, ATCC 10231) | MIC (Candida albicans; [13]) | MFC (Aspergillus terreus) | MIC (Aspergillus terreus) | MFC (Cryptococcus neoformans; [14]) | MIC (Cryptococcus neoformans; [15]) | HC50 at 1 h [1] | pIC50 [2] | MFC (Candida parapsilosis) | MIC (Candida parapsilosis) | MFC (Exophiala spinifera) | MIC (Exophiala spinifera) | MFC (Nakaseomyces glabratus) | MIC (Nakaseomyces glabratus) | MFC (Lomentospora prolificans) | MIC (Lomentospora prolificans) | pIC50 (MDCK) | MFC (Aspergillus flavus) | also measured |
| --- | --- | --- | --- | --- | --- | --- | --- | --- | --- | --- | --- | --- | --- | --- | --- | --- | --- | --- | --- | --- | --- |
| CCCCCc1cc[n+](CCCCCCCCCCCC[n+]2ccc(CCCCC)c(CCCCC)c2)cc1CCCCC | 2.7 µM | 2.7 µM | 2.7 µM | 2.7 µM | 2.7 µM | 1.4 µM | 1.4 µM | 1.4 µM | 17.5 µM | 4.28 | 2.7 µM | 2.7 µM | 2.7 µM | 2.7 µM | 1.4 µM | 1.4 µM | 5.5 µM | 2.7 µM | 4.15 | 22 µM | Activity [3]: inactive; Activity [4]: inactive; MIC (Aspergillus flavus): 11 µM; pIC50 (A549): 4.35; MFC (Rhizopus arrhizus): 2.7 µM; MIC (Rhizopus arrhizus): 2.7 µM; pIC50 [5]: 5.40; MFC (Scedosporium apiospermum): 5.5 µM; MIC (Scedosporium apiospermum): 5.5 µM; MFC (Curvularia australiensis): 2.7 µM; MIC (Curvularia australiensis): 2.7 µM; MFC (Aspergillus fumigatus): 22 µM; MIC (Aspergillus fumigatus): 11 µM |
| CN1CCC[C@H]1c1ccc[n+](CCCCCCCCCCCC[n+]2cccc([C@@H]3CCCN3C)c2)c1.[Br-].[Br-] |  |  |  | > 50 µM |  |  |  | > 50 µM |  |  |  |  |  |  |  |  |  |  |  |  | solubility [6]: Insoluble |
| CCCCCc1cc[n+](CCCCCCCCCCCC[n+]2ccc(CCCCC)cc2)cc1.[Cl-].[Cl-] | 22 µM | 11 µM | 2.7 µM |  | 22 µM | 11 µM | 1.4 µM |  | > 350 µM | < 3.60 | 2.7 µM | 1.4 µM | 0.7 µM | 0.7 µM | 2.7 µM | 2.7 µM | 5.5 µM | 2.7 µM | 3.82 | 87.5 µM | MIC (Candida albicans): 2.7 µM; Selectivity Index [7]: >100; MIC (Cryptococcus neoformans): 1.4 µM; Selectivity Index [8]: >100; Selectivity Index [9]: >40; Selectivity Index [10]: >40; MIC (Aspergillus flavus): 44 µM; pIC50 (A549): 3.94; MFC (Rhizopus arrhizus): 11 µM; MIC (Rhizopus arrhizus): 2.7 µM; pIC50 [5]: 3.98; MFC (Scedosporium apiospermum): 5.5 µM; MIC (Scedosporium apiospermum): 5.5 µM; MFC (Curvularia australiensis): 11 µM; MIC (Curvularia australiensis): 11 µM; Selectivity Index [11]: >40; Selectivity Index [12]: >40; MFC (Aspergillus fumigatus): 87.5 µM; MIC (Aspergillus fumigatus): 87.5 µM |

Source: ChEMBL document CHEMBL1152529, “Synthesis, antifungal, haemolytic and cytotoxic activities of a series of bis(alkylpyridinium)alkanes” (Bioorg Med Chem, 2009)
